From patent US20120034613A1, “Apparatus and Method for Testing Relationships Between Gene Expression and Physical Appearance of Skin” (NSE Products, Inc., priority 2010, published 2012)

System: EpidermFT™ Skin Model (EFT-400) full thickness skin cultures
Assay: Affymetrix GeneChip HG U133 Plus 2.0 microarray global gene expression, agent-exposed vs untreated skin cultures
Type: cell-based, human
Settings: Salicin 0.5% vs Untreated Control

OCc1ccccc1O[C@@H]1O[C@H](CO)[C@@H](O)[C@H](O)[C@H]1O [Salicin, 2-(Hydroxymethyl)phenyl β-D-glucospyranoside]
Fold change TMEM38B (222736_s_at) (24 hr treatment): 2.316
Fold change TMEM39A (218615_s_at) (24 hr treatment): 2.497
Fold change TMEM39A (222690_s_at) (24 hr treatment): 2.47
Fold change TMTC1 (226322_at) (24 hr treatment): 2.647
Fold change TMTC1 (226931_at) (24 hr treatment): 2.583
Fold change TNC (216005_at) (24 hr treatment): 2.719
Fold change TNFAIP6 (206026_s_at) (24 hr treatment): 2.52
Fold change TNIP3 (220655_at) (24 hr treatment): 2.654
Fold change TRPA1 (217590_s_at) (24 hr treatment): 2.602
Fold change TRPC4 (224220_x_at) (24 hr treatment): 2.708
Fold change UBE2B (239163_at) (24 hr treatment): 2.636
Fold change UGCGL2 (218801_at) (24 hr treatment): 2.4
Fold change UST (205139_s_at) (24 hr treatment): 2.454
Fold change WIPI1 (203827_at) (24 hr treatment): 2.744
Fold change XPO1 (235927_at) (24 hr treatment): 2.529
Fold change ZFAND5 (217649_at) (24 hr treatment): 2.438
Fold change ZFP36L1 (211965_at) (24 hr treatment): 2.705
Fold change ZNF281 (228785_at) (24 hr treatment): 2.627
Fold change ZNF331 (219228_at) (24 hr treatment): 2.442
Fold change ZNF697 (227080_at) (24 hr treatment): 2.599
Fold change ABCD3 (202850_at) (24 hr, direction down): 2.077
Fold change ABCG4 (207593_at) (24 hr, direction down): 2.004
Fold change ACACA (212186_at) (24 hr, direction down): 2.091
Fold change ACAD9 (224160_s_at) (24 hr, direction down): 2.034
Fold change ACOX3 (204241_at) (24 hr, direction down): 2.001
Fold change ADAMTSL4 (226071_at) (24 hr, direction down): 2.137
Fold change ADARB1 (203865_s_at) (24 hr, direction down): 2.089
Fold change AHNAK (211986_at) (24 hr, direction down): 2.023
Fold change AIF1L (223075_s_at) (24 hr, direction down): 2.169
Fold change AK1 (202587_s_at) (24 hr, direction down): 2.078
Fold change AK3L1 /// AK3L2 (204347_at) (24 hr, direction down): 2.026
Fold change ALDH5A1 (203609_s_at) (24 hr, direction down): 2.111
Fold change ALOX12 (207206_s_at) (24 hr, direction down): 2.124
Fold change AMACR (209426_s_at) (24 hr, direction down): 2.021
Fold change AMOTL2 (203002_at) (24 hr, direction down): 2.089
Fold change ANK3 (207950_s_at) (24 hr, direction down): 2.049
Fold change APPL2 (218218_at) (24 hr, direction down): 2.013
Fold change AQP3 (203747_at) (24 hr, direction down): 2.032
Fold change ARHGAP27 (225618_at) (24 hr, direction down): 2.077
Fold change ARL17 /// ARL17P1 (1555964_at) (24 hr, direction down): 2.016
Fold change ARPC1A (200950_at) (24 hr, direction down): 2.042
Fold change ASAP3 (222236_s_at) (24 hr, direction down): 2.079
Fold change ATP2B4 (212136_at) (24 hr, direction down): 2.118
Fold change ATXN3 (205416_s_at) (24 hr, direction down): 2.164
Fold change BAIAP2 (205293_x_at) (24 hr, direction down): 2.03
Fold change BCL11A (1559078_at) (24 hr, direction down): 2.151
Fold change BCL11B (222895_s_at) (24 hr, direction down): 2.021
Fold change BICD2 (1553021_s_at) (24 hr, direction down): 2.09
Fold change BLCAP (201032_at) (24 hr, direction down): 2.077
Fold change C1orf46 (216718_at) (24 hr, direction down): 2.083
Fold change C1orf71 (225551_at) (24 hr, direction down): 2.006
Fold change C1orf97 (224443_at) (24 hr, direction down): 2.02
Fold change C2orf7 (223312_at) (24 hr, direction down): 2.047
Fold change C4orf3 (224605_at) (24 hr, direction down): 2.002
Fold change C6orf105 (215100_at) (24 hr, direction down): 2.121
Fold change C12orf29 (228378_at) (24 hr, direction down): 2.164
Fold change C15orf52 (227272_at) (24 hr, direction down): 2.042
Fold change C17orf67 (236863_at) (24 hr, direction down): 2.03
Fold change C20orf177 (225313_at) (24 hr, direction down): 2.134
Fold change CALM1 /// CALM2 /// CALM3 (200653_s_at) (24 hr, direction down): 2.056
Fold change CALM1 /// CALM2 /// CALM3 (209563_x_at) (24 hr, direction down): 2.029
Fold change CAT (211922_s_at) (24 hr, direction down): 2.095
Fold change CENPT (218148_at) (24 hr, direction down): 2.074
Fold change CEP76 (52285_f_at) (24 hr, direction down): 2.004
Fold change CERK (218421_at) (24 hr, direction down): 2.138
Fold change CKB (200884_at) (24 hr, direction down): 2.055
Fold change CLCN5 (232127_at) (24 hr, direction down): 2.126
Fold change CLDN7 (202790_at) (24 hr, direction down): 2.043
Fold change CLIP1 (1558924_s_at) (24 hr, direction down): 2.123
Fold change CLN8 (229958_at) (24 hr, direction down): 2.102
Fold change CNDP2 (217752_s_at) (24 hr, direction down): 2.002
Fold change CNTN1 (211203_s_at) (24 hr, direction down): 2.105
Fold change CSNK2A2 (203575_at) (24 hr, direction down): 2.095
Fold change CTAGE4 (215549_x_at) (24 hr, direction down): 2.108
Fold change CXCL12 (203666_at) (24 hr, direction down): 2.074
Fold change CYB5R1 (202263_at) (24 hr, direction down): 2.119
Fold change CYCS (244546_at) (24 hr, direction down): 2.168
Fold change DBI (211070_x_at) (24 hr, direction down): 2.056
Fold change DDR1 (1007_s_at) (24 hr, direction down): 2.104
Fold change DDX50 (1568815_a_at) (24 hr, direction down): 2.115
Fold change DHRS4 /// DHRS4L2 (218021_at) (24 hr, direction down): 2.062
Fold change DMD (203881_s_at) (24 hr, direction down): 2.165
Fold change DOPEY2 (205248_at) (24 hr, direction down): 2.103
Fold change ELOVL3 (234513_at) (24 hr, direction down): 2.048
Fold change EPCAM (201839_s_at) (24 hr, direction down): 2.093
Fold change EPHB4 (202894_at) (24 hr, direction down): 2.087
Fold change EPHB6 (204718_at) (24 hr, direction down): 2.036
Fold change ERI2 (213365_at) (24 hr, direction down): 2.167
Fold change F2RL1 (206429_at) (24 hr, direction down): 2.099
Fold change FAM33A (225684_at) (24 hr, direction down): 2.022
Fold change FAR1 (224865_at) (24 hr, direction down): 2.117
Fold change FBXO3 (229955_at) (24 hr, direction down): 2.107
Fold change FBXO3 (238686_at) (24 hr, direction down): 2.147
Fold change FBXO9 (212991_at) (24 hr, direction down): 2.083
Fold change FBXO9 (1559094_at) (24 hr, direction down): 2.099
Fold change FIGNL1 (222843_at) (24 hr, direction down): 2.071
Fold change FKBP1B (206857_s_at) (24 hr, direction down): 2.113
Fold change FKBPL (219187_at) (24 hr, direction down): 2.09
Fold change FRAG1 (41858_at) (24 hr, direction down): 2.049
Fold change FUCA1 (202838_at) (24 hr, direction down): 2.147
Fold change FUT2 (210608_s_at) (24 hr, direction down): 2.05
Fold change GAB1 (225998_at) (24 hr, direction down): 2.071
Fold change GAS7 (202192_s_at) (24 hr, direction down): 2.035
Fold change GDAP1 (226269_at) (24 hr, direction down): 2.153
Fold change GNG4 (205184_at) (24 hr, direction down): 2.054
Fold change GPR1 (214605_x_at) (24 hr, direction down): 2.109
Fold change GPR137B (204137_at) (24 hr, direction down): 2.046
Fold change GSN (200696_s_at) (24 hr, direction down): 2.089
Fold change HES5 (239230_at) (24 hr, direction down): 2.078
Fold change HIGD1A (217845_x_at) (24 hr, direction down): 2.017
Fold change HN1 (222396_at) (24 hr, direction down): 2.105
Fold change HN1L (212115_at) (24 hr, direction down): 2.003
Fold change HSDL2 (209512_at) (24 hr, direction down): 2.126
Fold change ID2 (201565_s_at) (24 hr, direction down): 2.158
